What was measured:
[1] = tested on: HEK 293 cells transfected with pcDNA3.1 without catecholamine receptor sequences; assay: MAP kinase pathway stimulation, Elk-gal/luciferase reporter assay in control HEK 293 cells transfected with pcDNA3.1; details: control HEK 293 cells with empty vector pcDNA3.1; compared with cells incubated in the absence of the ligand
[2] = tested on: human catecholamine receptor; assay: MAP kinase pathway stimulation, Elk-gal/luciferase reporter assay in HEK 293 cells transfected with H2-3pcDNA3.1; details: HEK 293 cells expressing FLAG/D2-tagged human catecholamine receptor; compared with cells incubated in the absence of the ligand

| SMILES | fold stimulation of luciferase (MAP kinase activation), pcDNA3.1 [1] [fold] | fold stimulation of luciferase (MAP kinase activation), H2-3 pcDNA3.1 [2] [fold] |
| --- | --- | --- |
| NC1CCc2cc(O)c(O)cc2C1 (centres unmarked) [ADTN67] | 0.78 | 1.93 |
| C=CCN1CCc2c(cc(O)c(O)c2Cl)C(c2ccccc2)C1 (centres unmarked) [SKF82958] | 0.79 | 2.52 |
| NCCc1c[nH]c2ccc(O)cc12 [Serotonin] | 1 | 1.22 |
| NC[C@H](O)c1ccc(O)c(O)c1 [Norepinephrine] | 1.3 | 1.69 |
